The structures appear in SMILES notation.

For one assay, the system named is MMP-2 and MMP-9. Briefly: Gelatin zymography of HT1080 conditioned medium. In kind it is biochemical, human. As to conditions: 1–100 μM in HT1080 conditioned medium. The procedure: The culture medium of human fibrosarcoma HT1080 cells (DMEM) was removed and concentrated 20-fold in a Vivaspin 6 ml concentrator. It was incubated for 30 min at ambient temperature in nonreducing sample buffer and run under Laemmli conditions ([Laemmli, 1970]) by loading a volume of 25 μl onto 7.5% polyacrylamide gels containing 0.1% sodium dodecyl sulphate (SDS), 2 mg ml^−1 casein and 0.16 μM human plasminogen. Following electrophoresis, gels were incubated for 1 h in 2.5% (v v^−1) Triton X-100 for removal of SDS and then for 1 h at 37°C in 50 mM Tris-HCl, 0.1 M NaCl, pH 7.6. Plasminogen activator (PA) activity was visualised as clear bands of lysis upon staining with 0.1% Coomassie blue R250. Purified human high-molecular-weight two-chain urokinase plasminogen activator (HMW-uPA) and low-molecular-weight urokinase plasminogen activator (LMW-uPA) were run in each gel as positive controls. An analogous protocol was followed to detect enzymatic activities towards MMP-2 and MMP-9 except that the 7% SDS–PAGE contained 1 mg ml^−1 bovine gelatin. The gels were incubated at 37°C for about 18 h in 5 mM Tris, pH 7.6 containing 0.2 M NaCl, 5 mM CaCl2 and 0.02 (w v^−1) Brij35. Protein staining was performed during 1 h with a 0.25% solution of Coomassie brillant blue R250 in 50% methanol and 7% acetic acid and destaining in a solution of 20% methanol and […]. […]

Assay [1] has as its system HT1080 fibrosarcoma cells. Briefly: Chemoinvasion assay, type IV collagen-coated Transwell inserts (Boyden chamber). Format: cell-based, human. As to conditions: Homo sapiens, HT-1080, 48 h, type IV collagen-coated filters, read-out: inhibition of HT1080 cell invasion (chemoinvasion). The procedure:
Plates (24-well) (Falcon, Becton-Dickinson, USA) and 6.5 mm polycarbonate filters (8 μm pore size) of Transwell cell culture chamber inserts (Costar, Netherlands) were coated with 100 μl of type IV collagen purified from human placenta diluted at 200 μg ml^−1 in phosphate-buffered saline (PBS). Coats were left to air-dry overnight in a laminar flow hood under UV light. Uniformity of the coating was assessed by Coomassie blue staining. Before use, coated plates and inserts were washed twice with water and incubated for at least 1 h in serum-free DMEM at 37°C ([Maquoi et al, 1999]).
HT1080 cells exponentially growing in T-75 flasks (Nunc, Costar, Netherlands) were collected by trypsin–ethylenediaminetetraacetic acid treatment, washed with serum-containing medium and allowed to recover from trypsinisation for at least 30 min at 37°C. Cells were then washed twice in serum-free DMEM and diluted in the same medium supplemented with 0.1% bovine serum albumin (BSA, fraction V, Sigma, USA) to a cell density of 6 × 10^5 cells ml^−1.
The influence of coumarin derivatives (0.1, 1 and 10 μM) on HT1080 cell invasion and migration was assayed using Transwell cell culture inserts (Costar) and compared to the reference compound GI 129471 (1 μM), an MMP inhibitor ([Wheeler et al, 1998]).
For chemoinvasion assays, type IV collagen-coated membranes (see above) were used, whereas uncoated membranes were employed for chemotaxis assays. Lower wells of chambers were filled with DMEM supplemented with 20% FCS and 1% BSA (fraction V, ICN) as chemoattractant, in the presence or absence of coumarin derivative (final concentration 0.1, 1 and 10 μM) or GI 129471 (final concentration 1 μM). Cells (6 × 10^4) suspended in DMEM supplemented with 0.1% BSA (fraction V, ICN) were seeded in the upper wells. Chambers were subsequently incubated for 48 and 4 h for chemoinvasion and chemotaxis assays, respectively, in a humid atmosphere at 37°C (in order to maintain a chemotactic gradient, media from both lower and upper wells were renewed after 24 h). After incubation, filters were removed from the chambers, fixed in 4% paraformaldehyde for 15 min (4°C), permeabilised for 10 min in methanol (−20°C) and stained with Giemsa (4%) for 15 min. The upper surface of the filters was scrapped with a cotton swab and cells having reached the lower surface of the filters were visually counted using a light microscope (Vanox AH3, Olympus, Hamburg, Germany) at 20-fold magnification. Each assay was performed in triplicate. Results were expressed as percentages (±s.d.) of the migration of control cells.

What is called inhibition is the relative decrease from the control value, in per cent. As for `CC(=O)OCc1ccc2oc(=O)c(C(=O)Oc3cccc(Cl)c3)cc2c1` [compound 4, 3-chlorophenyl 6-acetoxymethyl-2-oxo-2H-1-benzopyran-3-carboxylate], the “effect on gelatinolytic activities of conditioned culture medium (gelatin zymography)” value in the assay on MMP-2 and MMP-9 was “did not abrogate”. Further, in assay [1], the inhibition at 1 µM worked out at 50% and the inhibition at 10 µM was 90%.
On the same counts, the results for `CC(=O)OCc1ccc2oc(=O)c(C(=O)Oc3cccc(Br)c3)cc2c1` [compound 7, 3-bromophenyl 6-acetoxy-methyl-2-oxo-2H-1-benzopyran-3-carboxylate] are “did not abrogate”, 80% and roughly 90%.
